According to ChEMBL document CHEMBL4421726, “Novel prodrug salts” (2016):
The source made the active and inactive calls. The calls are words filed in the database; no cut-off is given here.

How the values were obtained:
[1] = Stability of the compound in pH 8.5 buffer assessed as compound hydrolysis at room temperature; assay type: physicochemical; conditions: read-out: Drug degradation
[2] = Stability of the compound in pH 8.5 buffer assessed as compound hydrolysis measured over 12 hrs; assay type: physicochemical; conditions: read-out: Drug degradation
[3] = Stability of the compound in solid state assessed as compound hydrolysis; assay type: physicochemical
Mus musculus [4] = assay: Improvement in neurological outcome in intraluminal monofilament mouse model of middle cerebral artery occlusion assessed as reduction in death incidence at 2 mg/kg, ip loading dose and 1 mg/ml at 8 ul/hr maintenance dose; assay type: functional, organism-based
Mus musculus [5] = assay: Improvement in neurological outcome in intraluminal monofilament mouse model of middle cerebral artery occlusion assessed as reduction in severe paralysis progress at 2 mg/kg, ip loading dose and 1 mg/ml at 8 ul/hr maintenance dose; assay type: functional, organism-based
Mus musculus [6] = assay: Improvement in neurological outcome in intraluminal monofilament mouse model of middle cerebral artery occlusion at 2 mg/kg, ip loading dose and 1 mg/ml at 8 ul/hr maintenance dose; assay type: functional, organism-based
[7] = target: T1, Aquaporin-2 (Homo sapiens) (UniProt P41181); assay: Inhibition of AQP2 (unknown origin) expressed in CHO cells assessed as reduction in aquaporin-mediated cell Volume change at 10 uM by light scattering based assay
T1 sequence (whole entry): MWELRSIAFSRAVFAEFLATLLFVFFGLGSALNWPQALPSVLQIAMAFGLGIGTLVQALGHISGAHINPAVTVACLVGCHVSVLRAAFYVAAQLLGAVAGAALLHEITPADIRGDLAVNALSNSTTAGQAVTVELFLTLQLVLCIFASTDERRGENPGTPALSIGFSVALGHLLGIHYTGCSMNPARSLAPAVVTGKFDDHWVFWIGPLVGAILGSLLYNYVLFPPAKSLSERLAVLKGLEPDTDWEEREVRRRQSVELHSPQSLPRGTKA

[8] = target: T2, Aquaporin-1 (Homo sapiens) (UniProt P29972); assay: Inhibition of AQP1 (unknown origin) expressed in CHO cells assessed as reduction in aquaporin-mediated cell Volume shrinkage at 10 uM by light scattering based assay
T2 sequence (whole entry): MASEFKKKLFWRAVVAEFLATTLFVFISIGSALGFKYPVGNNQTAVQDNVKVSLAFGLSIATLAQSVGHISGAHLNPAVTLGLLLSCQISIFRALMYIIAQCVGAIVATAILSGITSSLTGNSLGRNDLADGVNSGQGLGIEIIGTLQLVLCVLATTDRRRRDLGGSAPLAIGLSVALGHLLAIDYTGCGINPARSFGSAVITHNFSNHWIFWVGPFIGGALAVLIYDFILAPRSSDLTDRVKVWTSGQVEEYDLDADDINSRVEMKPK

[9] = target: Aquaporin-5 (Homo sapiens) (UniProt P55064); assay: Inhibition of AQP5 (unknown origin) expressed in CHO cells assessed as reduction in aquaporin-mediated cell Volume shrinkage at 10 uM by light scattering based assay
Sequence of Aquaporin-5 (Homo sapiens) (P55064 whole entry): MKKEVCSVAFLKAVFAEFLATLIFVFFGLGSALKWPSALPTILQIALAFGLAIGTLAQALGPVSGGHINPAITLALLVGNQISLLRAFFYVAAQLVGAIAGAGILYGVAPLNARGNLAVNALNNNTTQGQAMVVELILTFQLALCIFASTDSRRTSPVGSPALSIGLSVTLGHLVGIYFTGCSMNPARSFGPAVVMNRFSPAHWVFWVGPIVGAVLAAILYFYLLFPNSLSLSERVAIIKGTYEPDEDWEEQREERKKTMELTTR

[10] = Stability of the compound in pH 9.5 buffer assessed as compound hydrolysis measured over 12 hrs; assay type: physicochemical; conditions: read-out: Drug degradation
[11] = Stability of the compound in pH 9.5 buffer assessed as compound hydrolysis at room temperature; assay type: physicochemical; conditions: read-out: Drug degradation
[12] = Solubility in water; assay type: physicochemical
[13] = Stability of the compound assessed as compound hydrolysis at room temperature after 5 days; assay type: physicochemical; conditions: read-out: Drug degradation
Mus musculus [14] = assay: Drug absorption mouse plasma assessed as rate of drug absorption at 10 mg/kg, ip loading dose and 1 mg/ml at 8 ul/hr maintenance dose measured at 15 mins and 24 hrs post dose by LC-MS/MS analysis; assay type: ADME, organism-based; conditions: in vivo
[15] = Drug metabolism in mouse plasma assessed as formation of N-3,5-bis(trifluoromethyl)phenyl-5-chloro-2-hydroxybenzamide measured within 5 mins; assay type: ADME, cell-free
[16] = Drug metabolism in mouse plasma assessed as formation of 2-3,5-bis(trifluoromethyl)phenylcarbamoyl-4-chlorophenyl phosphate bis-ethanolamine salt at 10 mg/kg, ip loading dose and 1 mg/ml at 8 ul/hr maintenance dose measured at 15 mins and 24 hrs post dose by LC-MS/MS analysis; assay type: ADME, organism-based; conditions: in vivo
[17] = Drug metabolism in mouse plasma assessed as formation of N-3,5-bis(trifluoromethyl)phenyl-5-chloro-2-hydroxybenzamide at 10 mg/kg, ip loading dose and 1 mg/ml at 8 ul/hr maintenance dose measured at 15 mins and 24 hrs post dose by LC-MS/MS analysis; assay type: ADME, organism-based; conditions: in vivo
[18] = Drug elimination mouse plasma assessed as rate of drug elimination at 10 mg/kg, ip loading dose and 1 mg/ml at 8 ul/hr maintenance dose measured at 15 mins and 24 hrs post dose by LC-MS/MS analysis; assay type: ADME, organism-based
[19] = Stability of the compound in pH 7.5 buffer assessed as compound hydrolysis at room temperature; assay type: physicochemical; conditions: read-out: Drug degradation
[20] = Drug metabolism in mouse plasma assessed as N-3,5-bis(trifluoromethyl)phenyl-5-chloro-2-hydroxybenzamide level at 10 mg/kg, ip loading dose and 1 mg/ml at 8 ul/hr maintenance dose measured at 15 mins and 24 hrs post dose by LC-MS/MS analysis; assay type: ADME, organism-based; conditions: in vivo
[21] = Stability of the compound in pH 7.5 buffer assessed as compound hydrolysis measured over 12 hrs; assay type: physicochemical; conditions: read-out: Drug degradation
[22] = target: Aquaporin-4 (Homo sapiens) (UniProt P55087); assay: Inhibition of AQP4 (unknown origin) expressed in CHO cells assessed as reduction in water shock-induced aquaporin-mediated cell bursting at 10 uM incubated for 30 mins by calcein-AM fluorescence end-point assay; assay type: cell-based
Sequence of Aquaporin-4 (Homo sapiens) (P55087 whole entry): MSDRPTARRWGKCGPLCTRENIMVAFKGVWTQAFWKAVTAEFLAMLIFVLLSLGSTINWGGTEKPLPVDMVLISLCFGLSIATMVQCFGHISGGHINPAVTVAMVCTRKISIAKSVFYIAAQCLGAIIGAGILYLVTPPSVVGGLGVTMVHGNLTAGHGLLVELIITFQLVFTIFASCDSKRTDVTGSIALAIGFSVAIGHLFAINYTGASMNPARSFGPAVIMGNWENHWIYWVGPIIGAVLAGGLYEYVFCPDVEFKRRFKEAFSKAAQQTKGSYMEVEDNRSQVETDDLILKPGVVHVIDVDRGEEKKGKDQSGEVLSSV

Mus musculus [23] = assay: Inhibition of water shock-induced cerebral edema in mouse water toxicity model assessed as reduction in extent of cerebral edema at 0.76 mg/kg by MRI analysis relative to control; assay type: functional, organism-based
[24] = Plasma concentration in mouse water toxicity model a at 0.76 mg/kg; assay type: organism-based; conditions: in vivo
Mus musculus [25] = assay: Inhibition of water toxicity in mouse water toxicity model assessed as time to 50% survival for animals at 0.76 mg/kg relative to control; assay type: functional

O=C(Nc1cc(C(F)(F)F)cc(C(F)(F)F)c1)c1cc(Cl)ccc1OP(=O)([O-])O.[Na+]
degraded [1]: 1%
degraded at 12 h [2]: < 1%
Drug degradation [3]: 1%

O=C(Nc1cc(C(F)(F)F)cc(C(F)(F)F)c1)c1cc(Cl)ccc1OP(=O)(O)O [listing 1 of 2 here]
Activity (Mus musculus [4]): Active
Activity (Mus musculus [5]): Active
Activity (Mus musculus [6]): Active

O=C(Nc1cc(Cl)cc(Cl)c1)c1cc(Cl)ccc1O
inhibition [7]: 81%
inhibition [8]: inactive
inhibition [9]: inactive

O=C(Nc1cc(C(F)(F)F)cc(C(F)(F)F)c1)c1cc(Cl)ccc1OP(=O)([O-])[O-].[Na+].[Na+]
degraded at 12 h [10]: < 1%
degraded [11]: 1%
solubility [12]: 1000 to 10000 µg/mL
degraded ([3]; solid state, read-out: Drug degradation): 1%

O=C(Nc1cc(C(F)(F)F)cc(C(F)(F)F)c1)c1cc(Cl)ccc1OP(=O)(O)O [listing 2 of 2 here]
degraded at 120 h [13]: < 1%

NCCO.NCCO.O=C(Nc1cc(C(F)(F)F)cc(C(F)(F)F)c1)c1cc(Cl)ccc1OP(=O)(O)O
Ka (Mus musculus [14]): 0.12 min⁻¹
Drug metabolism [15]: Metabolite_Detected
Drug metabolism [16]: Metabolite_Notdetected
Drug metabolism [17]: Metabolite_Detected
k el [18]: 0.000283 s⁻¹
degraded [19]: 1%
Drug metabolism [20]: 400 ng/mL
solubility [12]: 10000 µg/mL
degraded at 12 h [21]: < 1%
Drug degradation [3]: 1%

O=C(Nc1cc(C(F)(F)F)cc(C(F)(F)F)c1)c1cc(Cl)ccc1O [IMD-0354]
inhibition [22]: Active
inhibition (Mus musculus [23]): Active
Cp [24]: 0.03 to 0.06 g
Time (Mus musculus [25]): 52 min
